Experimental data from ChEMBL document CHEMBL1121481, “Synthetic immunostimulants derived from the bacterial cell wall” (J Med Chem, 1980).

What was measured:
Limulus [1] = experiment: Compound was evaluated by Limulus amoebocyte lysate test; negative at 100 ug/mL; format: functional, organism-based
Oryctolagus cuniculus [2] = organism: Oryctolagus cuniculus; experiment: Compound was tested for pyrogenicity in the rabbit; pyrogenic at 100 ug/mL.; format: functional, organism-based
Cavia porcellus [3] = experiment: Compound was tested for delayed hypersensitivity in guinea pig after administration in a water in oil emulsion; compound is pyrogenic at 1 mg/kg; format: functional, organism-based; set-up: dose 1 mg/kg
Mus musculus [4] = experiment: Compound was tested for [3H]- -thymidine uptake in mouse spleen cell cultures; compound is pyrogenic at 1 mg/kg; format: functional, organism-based; set-up: dose 1 mg/kg
Mus musculus [5] = experiment: Compound was tested for protective activity in mice infected with Klebsiella pneumoniae; compound is non pyrogenic at 1 mg/kg; format: functional, organism-based; set-up: dose 1 mg/kg
Mus musculus [6] = experiment: Compound was tested for antibody titer in mice after injection with antigen in saline; compound is pyrogenic at 1 mg/kg; format: functional, organism-based; set-up: dose 1 mg/kg
Mus musculus [7] = experiment: Compound was tested for protective activity in mice infected with Klebsiella pneumoniae; compound is pyrogenic at 1 mg/kg; format: functional, organism-based; set-up: dose 1 mg/kg
Oryctolagus cuniculus [8] = experiment: Compound was tested for pyrogenicity in the rabbit; non pyrogenic at 1 mg/kg; format: functional, organism-based; set-up: dose 1 mg/kg
Cavia porcellus [9] = experiment: Compound was tested for delayed hypersensitivity in guinea pig after administration in a water in oil emulsion; compound is non pyrogenic at 1 mg/kg; format: functional, organism-based; set-up: dose 1 mg/kg
Cavia porcellus [10] = experiment: Compound was tested for delayed hypersensitivity in guinea pig after administration in a water in oil emulsion; non pyrogenic at 1 mg/kg; format: functional, organism-based; set-up: dose 1 mg/kg
Limulus [11] = experiment: Compound was evaluated by Limulus amoebocyte lysate test; positive at 10 ug/mL; format: functional, organism-based
Mus musculus [12] = experiment: Compound was tested for antibody titer in mice after injection with antigen in saline;compound is pyrogenic at 1 mg/kg; format: functional, organism-based; set-up: dose 1 mg/kg
Oryctolagus cuniculus [13] = organism: Oryctolagus cuniculus; experiment: Compound was tested for pyrogenicity in the rabbit; non pyrogenic at […]; format: functional, organism-based
Mus musculus [14] = experiment: Compound was tested for protective activity in mice infected with Klebsiella pneumoniae; non pyrogenic at 1 mg/kg; format: functional, organism-based; set-up: dose 1 mg/kg
Oryctolagus cuniculus [15] = organism: Oryctolagus cuniculus; experiment: Compound was tested for pyrogenicity in the rabbit; Delayed hypersensitivity; format: functional, organism-based
Limulus [16] = experiment: Compound was evaluated by Limulus amoebocyte lysate test; positive at 100 ug/mL; format: functional
Limulus [17] = experiment: Compound was evaluated by Limulus amoebocyte lysate test; Positive at 100 ug/mL; format: functional, organism-based
Mus musculus [18] = experiment: Compound was tested for [3H]thymidine uptake in mouse spleen cell cultures; compound is pyrogenic at 1 mg/kg; format: functional, organism-based; set-up: dose 1 mg/kg

With `CC(=O)N[C@H]1[C@@H](O[C@@H](C)C(=O)N[C@@H](C)C(=O)N[C@H](CCC(=O)N[C@@H](CCCCN)C(=O)N[C@H](C)C(=O)O)C(N)=O)[C@H](O)[C@H](CO)O[C@H]1O` the LAL test (Limulus [1]) was “Not toxic”, the Pyrogenic effect (Oryctolagus cuniculus [2]) was “pyrogenic at 100 ug/mL” and the Adjuvant effect (Cavia porcellus [3]) was “pyrogenic at 1 mg/kg”. For the same compound, the Mitogenic effect (Mus musculus [4]) was “pyrogenic at 1 mg/kg”, the Anti-infectious effect (Mus musculus [5]) was “Not toxic” and the Adjuvant effect (Mus musculus [6]) was “pyrogenic at 1 mg/kg”.
For `CC(=O)N[C@H]1C(OC(C)C(=O)NC(C)C(=O)NC(CCC(=O)O)C(=O)O)[C@H](O)C(CO)O[C@H]1O` (stereo partly specified), the LAL test (Limulus [1]) was “negative at 100 ug/mL”, the Mitogenic effect (Mus musculus [4]) was “pyrogenic at 1 mg/kg” and the Anti-infectious effect (Mus musculus [7]) was “pyrogenic at 1 mg/kg”. The Pyrogenic effect (Oryctolagus cuniculus [8]) was “Not toxic”, the Adjuvant effect (Cavia porcellus [9]) was “Not toxic” and the Adjuvant effect (Mus musculus [6]) was “pyrogenic at 1 mg/kg”.
In the case of `CC(=O)N[C@H]1C(OC(C)C(=O)NC(C)C(=O)NC(CCC(N)=O)C(=O)O)[C@H](O)C(CO)O[C@H]1O` (stereo partly specified), the Mitogenic effect (Mus musculus [4]) is reported as “pyrogenic at 1 mg/kg”, the Adjuvant effect (Cavia porcellus [10]) is reported as “Not toxic” and the Anti-infectious effect (Mus musculus [7]) is reported as “pyrogenic at 1 mg/kg”. For the same compound, the LAL test (Limulus [11]) was “positive at 10 ug/mL”, the Adjuvant effect (Mus musculus [12]) was “pyrogenic at 1 mg/kg” and the Pyrogenic effect (Oryctolagus cuniculus [13]) was “Not toxic”.
In the case of `COC(=O)C(CCC(N)=O)NC(=O)C(C)NC(=O)C(C)OC1[C@H](O)C(CO)O[C@@H](O)[C@H]1NC(C)=O` (stereo partly specified), the Adjuvant effect (Cavia porcellus [3]) is reported as “pyrogenic at 1 mg/kg”, the Mitogenic effect (Mus musculus [4]) is reported as “pyrogenic at 1 mg/kg” and the Anti-infectious effect (Mus musculus [14]) is reported as “Not toxic”. For the same compound, the Pyrogenic effect (Oryctolagus cuniculus [15]) was “Not toxic”, the LAL test (Limulus [16]) was “positive at 100 ug/mL” and the Adjuvant effect (Mus musculus [6]) was “pyrogenic at 1 mg/kg”.
With `CC(=O)N[C@H]1C(O)O[C@H](CO)[C@@H](O)[C@@H]1O[C@H](C)C(=O)N[C@@H](C)C(=O)N[C@H](CCC(=O)O)C(N)=O` (stereo partly specified) the Pyrogenic effect (Oryctolagus cuniculus [2]) was “pyrogenic at 100 ug/mL”, the Adjuvant effect (Cavia porcellus [3]) was “pyrogenic at 1 mg/kg” and the Mitogenic effect (Mus musculus [4]) was “pyrogenic at 1 mg/kg”. For the same compound, the Anti-infectious effect (Mus musculus [7]) was “pyrogenic at 1 mg/kg”, the LAL test (Limulus [16]) was “positive at 100 ug/mL” and the Adjuvant effect (Mus musculus [6]) was “pyrogenic at 1 mg/kg”.
For `COC(=O)CCC(NC(=O)C(C)NC(=O)C(C)OC1[C@H](O)C(CO)O[C@@H](O)[C@H]1NC(C)=O)C(=O)OC` (stereo partly specified), the LAL test (Limulus [17]) was “Positive at 100 ug/mL”, the Adjuvant effect (Cavia porcellus [3]) was “pyrogenic at 1 mg/kg” and the Anti-infectious effect (Mus musculus [7]) was “pyrogenic at 1 mg/kg”. The Pyrogenic effect (Oryctolagus cuniculus [15]) was “Not toxic”, the Adjuvant effect (Mus musculus [6]) was “pyrogenic at 1 mg/kg” and the Mitogenic effect (Mus musculus [18]) was “pyrogenic at 1 mg/kg”.
